# Results published in PMC8783508, “A novel D-amino acid peptide with therapeutic potential (ISAD1) inhibits aggregation of neurotoxic disease-relevant mutant Tau and prevents Tau toxicity in vitro” (Alzheimer's Research & Therapy, 2022).
# Non-standard residues stand in square brackets, D forms with d. Residues, ends and D or L forms follow the SMILES beside them.
# What was measured:
# [1] = molecular target: T1, Tau^FLΔK (Homo sapiens, UniProt P10636, DEL597-597); experiment: Fibrillization of Tau^FLΔK monitored by ThS assay; format: biochemical; details: Tau:peptide = 1:1; 1:5; 1:10
# T1 construct: Tau^FLΔK Full-length Tau mutant ΔK280
# T1 sequence (P10636 with tags, fused parts or gaps isoform P10636-8 DEL280-280): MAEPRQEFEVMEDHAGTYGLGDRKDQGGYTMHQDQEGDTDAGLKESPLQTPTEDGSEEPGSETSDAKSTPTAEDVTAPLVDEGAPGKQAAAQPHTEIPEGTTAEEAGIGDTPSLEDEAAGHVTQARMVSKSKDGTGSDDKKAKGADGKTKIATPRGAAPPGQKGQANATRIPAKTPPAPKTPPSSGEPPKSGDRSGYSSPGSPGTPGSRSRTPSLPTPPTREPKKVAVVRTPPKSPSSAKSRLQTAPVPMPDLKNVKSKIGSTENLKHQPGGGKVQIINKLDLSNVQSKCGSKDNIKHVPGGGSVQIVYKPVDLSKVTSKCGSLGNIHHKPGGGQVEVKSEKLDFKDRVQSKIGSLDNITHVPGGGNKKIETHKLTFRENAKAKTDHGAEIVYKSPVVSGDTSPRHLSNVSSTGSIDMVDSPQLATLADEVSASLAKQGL
# Procedure: (§1) For Tau fibrillization inhibition assays, 10 μM Tau mutant protein (Tau^RDΔK, Tau^FLΔK, Tau^FL-A152T, Tau^FL-P301L) was incubated in BES buffer (N,N-bis(2-hydroxyethyl)-2-aminoethanesulfonic acid, pH 7) in the presence of 2.5 μM heparin at 37 °C for 24 h with and without novel D-peptides (ISAD1 and ISAD1rev) at different concentrations (1 nM to 200 μM). Final concentration of 20 μM ThS was used for monitoring fibrillization. The assay was performed with 40-μl sample volume per well in a 384-well microtiter plate (Thermo LabSystems, Dreieich, Germany). The fibrillization of Tau was monitored by ThS and the relative fluorescence intensity of ThS was read out at 440 excitation/521 emission nm in a Tecan micro titer plate reader (Tecan, Männedorf, Switzerland).
# [2] = molecular target: T2, Tau^FL-P301L (Homo sapiens, UniProt P10636, P618L); experiment: Fibrillization of Tau^FL-P301L monitored by ThS assay; format: biochemical; details: Tau:peptide = 1:1; 1:5; 1:10
# T2 construct: Tau^FL-P301L Full-length Tau mutant P301L
# T2 sequence (P10636 1-441 isoform P10636-8 P301L): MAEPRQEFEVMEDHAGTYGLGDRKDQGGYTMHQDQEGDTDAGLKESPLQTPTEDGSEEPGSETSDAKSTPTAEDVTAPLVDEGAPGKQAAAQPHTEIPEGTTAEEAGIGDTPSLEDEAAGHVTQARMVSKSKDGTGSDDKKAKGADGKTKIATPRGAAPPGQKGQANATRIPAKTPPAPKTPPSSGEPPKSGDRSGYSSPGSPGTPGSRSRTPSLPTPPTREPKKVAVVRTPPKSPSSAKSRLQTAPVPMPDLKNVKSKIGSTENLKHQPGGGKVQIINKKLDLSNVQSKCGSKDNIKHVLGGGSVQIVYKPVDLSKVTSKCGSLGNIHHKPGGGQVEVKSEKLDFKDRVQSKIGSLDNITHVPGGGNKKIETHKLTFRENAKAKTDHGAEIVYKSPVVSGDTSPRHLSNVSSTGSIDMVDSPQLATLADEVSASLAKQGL
# Procedure: as §1
# [3] = DLS of D-peptides alone with heparin; format: physicochemical; details: 100 μM D-peptide, 2.5 µM heparin 16000, 24 hours
# Procedure: After the ThS assay (end time point, 24 h), the samples were used for DLS measurements. Twenty microliters of the sample was placed in a quartz batch cuvette (ZEN2112) and the measurement was performed at 25 °C in a Zetasizer Nano S instrument (Malvern Instruments, Herrenberg, Germany). The sample was thermally equilibrated at 25 °C for 2 min. The mean value of the intensities of an individual sample was determined over 3 measurements with 15 runs each. Analysis and averaging of the collected data were performed with the Zetasizer software 7.11 (Malvern Instruments, Herrenberg, Germany) and the result is represented as a volume graph. Tau^RDΔK fibrils (Tau+heparin) formed in the absence of D-peptides was used as a positive control.
# 100 μM of D-peptides and 2.5 µM of heparin 16000 (H16K) were incubated together for 24 hours and measured by DLS.
# [4] = system: N2a cells expressing Tau^RDΔK; experiment: Uptake of FAM-labeled D-peptides by confocal microscopy; format: cell-based; details: 25 μM FAM-labeled peptide, 24 h, fixed cells
# Procedure: In order to become potentially suitable for therapeutic development, the D-peptides should be internalized by neurons. To test this, 25 μM FAM-labeled ISAD1 or its inversed form was added to cells that express pro-aggregant mutant Tau^RDΔK for 24 h followed by cell fixation.
# Fig. 7 Uptake of fluorescence-labeled D-peptides analyzed by confocal microscopy. 25 μM FAM-labeled peptides (ISAD1 and ISArev) were incubated with N2a cells expressing Tau^RDΔK for 24 h. The uptake of D-peptides was analyzed by confocal microscopy. As shown in the representative images, the peptides are mainly localized in the cytoplasm (A1, B1 Draq5 shown as red; A2 ISAD1-FAM, B2 ISAD1rev-FAM; A3, B3 merged images)
# [5] = system: N2a-Tau^RDΔK cells; experiment: MTT, toxicity of externally added Tau^RDΔK aggregates; format: cell-based; details: Tau^RDΔK pre-incubated with peptide 1:10, 24 h, 37 °C; 10 μM Tau, 100 μM peptide final, 24 h on cells, n = 3
# Procedure: Cell viability was analyzed in accordance with the manufacturer’s protocol (Roche Diagnostics, Mannheim, Germany; cell proliferation kit II (MTT)). This assay is based on the cleavage of the yellow tetrazolium salt MTT into purple formazan dye by metabolic active cells. The color changes only in viable cells and can be directly quantified using a scanning multiwell spectrophotometer. In all experiments, the cells were grown as described previously. The cells (25,000 cells/well or 80% confluence) were plated on poly D-lysine-coated 96-well plates (Greiner Bio-One GmbH, Frickenhausen, Germany) for stronger attachment from overnight to 24 h at 37 °C. Fibrillized Tau^RDΔK was generated by incubating 200 μM Tau^RDΔK in BES buffer at 37 °C for 24 h in the presence of 2 mM D-peptides (Tau^RDΔK:peptide = 1:10). Successful fibrillization was verified using ThS (5 μM Tau^RDΔK, 10 μM ThS) measurement. The aggregated Tau^RDΔK (10 μM final concentration), Tau^RDΔK (10 μM) + peptide (100 μM) samples (ISAD1 and ISAD1rev), buffer only (negative control, set to 100% cell viability), and TritonX-100 (2%, cytotoxic agent, positive control) were incubated on N2a-Tau^RDΔK cells (100 μl solution) for another 24 h. The cell viability was measured in accordance with the manufacturer’s protocol.
# [6] = system: N2a-Tau^RDΔK cells; experiment: LDH release, externally added Tau^RDΔK aggregates; format: cell-based; details: 10 μM Tau, 100 μM peptide final, pre-incubated, 24 h on cells, n = 3
# Procedure: N2a cells expressing Tau^RDΔK were plated on poly D-lysine-coated 96-well plates with a density of 25,000 cells/well. At 70 to 80% confluence, the cells were treated for 24 h with various concentrations of D-peptides (25, 50, 100, and 250 μM) or Tau^RDΔK (10 μM final concentration) in the presence of ISAD1 and ISAD1rev (100 μM final concentration). The ability of D-peptides to neutralize the toxicity of Tau^RDΔK oligomers/fibrils was investigated by measuring the amount of released LDH (Roche Diagnostics, Mannheim, Germany). Therefore, 50 μL of each well was transferred to a fresh 96-well plate and 50 μL of reagent was added followed by a 30-min incubation period at RT. Finally, 50 μL of stop solution (1 N HCl) was added and absorbance was recorded at 492 nm (TECAN spectrofluorometer, Männedorf, Switzerland). Absorbance values were corrected by background values and the percentage of LDH release was calculated.
# [7] = system: N2a-Tau^RDΔK cells; experiment: LDH release, intracellularly expressed Tau^RDΔK (Dox induced); format: cell-based; details: 1 μg/ml doxycycline, peptide 25, 50, 100, 250 μM, n = 2
# Procedure: After the N2a-Tau^RDΔK cells reached the desired confluence (25,000 cells/well or 80%), intracellular Tau^RDΔK expression was induced by the addition of 1 μg/ml Dox. The cells were plated on poly D-lysine-coated 96-well plates (Greiner Bio-One GmbH, Frickenhausen, Germany) and treated with ISAD1 and ISAD1rev in a concentration range of 25 to 250 μM. TritonX-100 (2%) was used as a positive control. The incubation and Tau^RDΔK expression time was 72 h. Following incubation, cell viability was studied by measuring MTT and LDH release in accordance with the manufacturer’s protocol.
compound,measurement,setting,value
CC(C)C[C@@H](NC(=O)[C@@H](CO)NC(=O)[C@@H](CC(C)C)NC(=O)[C@H](NC(=O)[C@@H](CC(=O)O)NC(=O)[C@@H](C)NC(=O)[C@@H](C)NC(=O)[C@H](N)CO)[C@H](C)O)C(=O)N[C@H](CCCCN)C(=O)N[C@H](Cc1ccccc1)C(=O)N[C@@H](C(=O)N[C@H](CO)C(=O)O)C(C)C [ISAD1rev] (H-[dS][dA][dA][dD][dT][dL][dS][dL][dK][dF][dV][dS]-OH; N-terminus and C-terminus assumed),"Inhibition of Tau^FLΔK fibrillization, in words",[1],weak inhibitory effects
same,"Inhibition of Tau^FL-P301L fibrillization, in words",[2],weak inhibitory effects
same,Particle size of peptide alone in the presence of heparin (DLS),[3],< 2 nm
same,Intracellular localisation,[4],accumulated in the cytosol but were excluded from the nucleus
same,Uptake by cells,[4],almost all cells took up the D-peptides
same,"Effect on toxicity of Tau aggregates, cell viability (MTT)",[5],preserving cell viability
same,"Effect on toxicity of Tau aggregates, LDH release",[6],Low LDH release levels
same,Effect on LDH release of cells expressing Tau^RDΔK,[7],Protection of cell membrane integrity
